In article PMC3663906 (Journal of medicinal chemistry, 2013):

What was measured:
[1] = system: endocytosis of transferrin in T. brucei; settings: cited from earlier work
HepG2 cells = test: HepG2 cell toxicity assay; type: cell-based; settings: Homo sapiens, HepG2, read-out: HepG2 IC50, MTT cytotoxicity, Tables 5 and 6
T. brucei brucei CA427 = test: Mouse model of HAT
[2] = system: endocytosis of transferrin in T. brucei; test: Receptor-mediated endocytosis of transferrin in the trypanosome
T. brucei [3] = test: Trypanosome cell cycle analysis
[4] = Mouse oral pharmacokinetic study; type: in vivo
T. brucei [5] = settings: cited from earlier work

For `CS(=O)(=O)CCNCc1ccc(-c2ccc3ncnc(Nc4ccc(OCc5cccc(F)c5)c(Cl)c4)c3c2)o1` [Compound 1, lapatinib], the “effect on endocytosis of transferrin in the trypanosome” value [1] is given as “inhibited endocytosis of transferrin”.

`O=S(=O)(c1cccc(-c2ccc3ncnc(Nc4ccc(OCc5cccc(F)c5)c(Cl)c4)c3c2)c1)N1CCOCC1` [Compound 10k, N-(3-chloro-4-((3-fluorobenzyl)oxy)phenyl)-6-(3-(morpholinosulfonyl)phenyl)quinazolin-4-amine] gave an IC50 (HepG2 cells) of over 20 µM.

With `O=S(=O)(c1ccc(-c2ccc3ncnc(Nc4ccc(OCc5cccc(F)c5)c(Cl)c4)c3c2)cc1)N1CCCCC1` [Compound 10l, N-(3-chloro-4-((3-fluorobenzyl)oxy)phenyl)-6-(4-(piperidin-1-ylsulfonyl)phenyl)quinazolin-4-amine] the IC50 (HepG2 cells) was over 20 µM.

Work on `O=S(=O)(c1cccc(-c2ccc3ncnc(Nc4ccc(OCc5cccc(F)c5)c(Cl)c4)c3c2)c1)N1CCCCC1` [Compound 10m, N-(3-chloro-4-((3-fluorobenzyl)oxy)phenyl)-6-(3-(piperidin-1-ylsulfonyl)phenyl)quinazolin-4-amine] yielded an IC50 (HepG2 cells) of over 20 µM.

For `Fc1cccc(COc2ccc(Nc3ncnc4ccc(-c5cccc(N6CCOCC6)c5)cc34)cc2Cl)c1` [Compound 23a, N-(3-chloro-4-((3-fluorobenzyl)oxy)phenyl)-6-(3-morpholinophenyl)quinazolin-4-amine], the “survival on day 8 (all untreated mice had died)” value (T. brucei brucei CA427; 10 mg/kg twice per day i.p.) was “all alive”, the survival (T. brucei brucei CA427; 10 mg/kg twice per day oral) was “died in the same time frame as control mice” and the “toxicity in multi-day regimen” value (T. brucei brucei CA427; mouse, 40 mg/kg dose once per day) was “drug-related toxicity was observed”. For the same compound, the “effect on receptor-mediated endocytosis of transferrin” value [2] was “no effect”, the “effect on the cell cycle” value (T. brucei [3]) was “blocks duplication of the kinetoplast and arrests cytokinesis, without inhibiting division of the trypanosome nucleus” and the “fraction of cells containing two nuclei and one kinetoplast (1K2N)” value (T. brucei [3]; DAPI microscopy) was “selectively increased”. The “number of cells containing one nucleus (1K1N, 1Ke1N)” value (T. brucei [3]; DAPI microscopy) was “reduced” and the oral bioavailability [4] was “orally bioavailable”.

For `C=CC(=O)Nc1cc2c(Nc3ccc(F)c(Cl)c3)ncnc2cc1OCCCN1CCOCC1` [canertinib], the “EC50 for killing T. brucei” value (T. brucei [5]) is given as “low micromolar range”.
